Measurements: PubChem BioAssay (NCI)
“And” between values parts separate entries of the source, which are not always exact repeats. Identical values can stand only once.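 Dose response: 5 concentrations. Exposure: 48 h. Format: 96-well plates. Endpoint: linear interpolation; highest concentration if not reached. GI50 is the concentration that inhibits growth by half. TGI: concentration producing complete growth inhibition.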

Legend:
Assay in all cases: NCI-60 cell line screen, 48 h
[1] = system: OVCAR-8 ovarian
[2] = system: TK-10 renal
[3] = system: EKVX NSCLC
[4] = system: CCRF-CEM leukemia
[5] = system: SF-295 CNS
[6] = system: RPMI-8226 leukemia
[7] = system: COLO 205 colon
[8] = system: M14 melanoma
[9] = system: NCI-H522 lung
[10] = system: NCI-H460 lung

| Compound | TGI [1] [µM] | TGI [2] | TGI [3] [µM] | TGI [4] [µM] | TGI [5] | TGI [6] [µM] | TGI [7] [µM] | TGI [8] [µM] | TGI [9] [µM] | TGI [10] [µM] | GI50 [1] [µM] | GI50 [2] [µM] | GI50 [3] [µM] | GI50 [5] [µM] | GI50 [7] [µM] | GI50 [9] [µM] | GI50 [10] [µM] | GI50 [4] [µM] |
| --- | --- | --- | --- | --- | --- | --- | --- | --- | --- | --- | --- | --- | --- | --- | --- | --- | --- | --- |
| CC(=O)NC1=C(C)C(=O)c2c(nc3n2CCC3O)C1=O (stereo unspecified) | 68.1 | > 100 µM | 51.4 | 39.3 | > 100 µM | 50.6 | > 100 | > 100 | 68.2 | > 100 | – | – | – | – | – | – | – | – |
| O=c1[nH]c2cc3cccnc3c(Cl)c2nc1C(F)(F)F | > 100 | > 100 µM | > 100 | 98.2 | > 100 µM | > 100 | > 100 | > 100 | > 100 | > 100 | – | – | – | – | – | – | – | – |
| CCNC(=O)/C=C/CCC#Cc1ccc(-c2ccc(-c3cccs3)s2)s1 | > 100 | > 100 µM | > 100 | > 100 | > 100 µM | > 100 | 3.19 | > 100 | > 100 | > 100 | – | – | – | – | – | – | – | – |
| CCOC(=O)C1=C(C)C(C(=O)OC)/C(=C/c2cccc3cccnc23)C1=O (stereo unspecified) | > 10 | > 10 µM | > 10 | > 10 | > 10 µM | > 10 | > 10 | > 10 | > 10 | > 10 | – | – | – | – | – | – | – | – |
| NCCNCCCCCCNC(=O)c1cccc2cc3ccccc3nc12 | 5.27 | 20.8 µM | 20.9 | 7.26 | 10.6 µM | 6.82 | 13.2 | 3.6 | 4.52 | 2.98 | – | – | – | – | – | – | – | – |
| CCOC(=O)CCc1c(C(=O)OCC)[nH]c(/C=C2\NC(=O)C(C)=C2CC)c1C | 18.9 | – | 50.3 | > 100 | 41.3 µM | > 100 | > 100 | > 100 | 30.7 | > 100 | – | – | – | – | – | – | – | – |
| COC(=O)c1ccc(CCc2cc(O)ccc2O)cc1 | > 52.7 | 45.8 µM | 32.4 | > 26.8 | > 70.5 µM | 4.16 | 54.5 | 27.8 | 2.16 | > 68.4 | – | – | – | – | – | – | – | – |
| Cc1ccc(-n2c(O)c3c(N)n[nH]c3c(C#N)c2=O)cc1 | > 100 | > 100 µM | > 100 | > 100 | – | > 100 | > 100 | > 100 | > 100 | > 100 | – | – | – | – | – | – | – | – |
| c1cc(C[S+]2CCCC2)ccc1C[S+]1CCCC1 | > 100 | > 100 µM | > 100 | > 100 | > 100 µM | > 100 | > 100 | > 100 | > 100 | > 100 | – | – | – | – | – | – | – | – |
| CC(C)[C@H]1NC(=O)[C@H]2N=C(O[C@@H]2C)[C@@H]2CCCN2C(=O)[C@H](Cc2ccccc2)NC(=O)[C@@H]2CSC(=N2)[C@@H](Cc2ccccc2)NC(=O)[C@@H]2CSC1=N2 | > 100 | > 100 µM | > 100 | > 100 | > 100 µM | 94.9 | > 100 | > 100 | > 100 | – | – | – | – | – | – | – | – | – |
| C1#Cc2ccccc2OCCOc2ccccc2C#Cc2ccccc2OCCOc2ccccc21 | 28.3 | > 100 µM | 98.9 | 36.3 | > 100 µM | 42.4 | > 100 | > 100 | 49.8 | > 100 | – | – | – | – | – | – | – | – |
| O=c1[nH]c2ccccc2nc1/C=C(\O)C(F)F | > 100 | > 100 µM | > 100 | > 100 | > 100 µM | > 100 | > 100 | > 100 | > 100 | > 100 | – | – | – | – | – | – | – | – |
| N#Cc1c(N2CCCC2)ncn(Cc2ccccc2)c1=S | > 100 | > 100 µM | > 100 | > 100 | > 100 µM | > 100 | > 100 | > 100 | > 100 | > 100 | – | – | – | – | – | – | – | – |
| CC(=NCCN(CCN=C(C)c1c(O)cc(C)oc1=O)CCN=C(C)c1c(O)cc(C)oc1=O)c1c(O)cc(C)oc1=O | > 100 | > 100 µM | > 100 | > 100 | > 100 µM | > 100 | > 100 | > 100 | > 100 | > 100 | – | – | – | – | – | – | – | – |
| O=C1OC2(C(F)(F)F)Oc3ccccc3CN2C12CCCCC2 (stereo unspecified) | > 100 | > 100 µM | > 100 | 62.7 | 86.8 µM | – | 34.7 | 66 | 83.3 | 66.4 | – | – | – | – | – | – | – | – |
| OCC(O)C1OC2CC1Nc1ccccc1N2 (stereo unspecified) | > 100 | > 100 µM | > 100 | > 100 | > 100 µM | > 100 | > 100 | – | > 100 | > 100 | – | – | – | – | – | – | – | – |

| Compound | TGI [1] [µM] | TGI [2] | TGI [3] [µM] | TGI [4] [µM] | TGI [5] | TGI [6] [µM] | TGI [7] [µM] | TGI [8] [µM] | TGI [9] [µM] | TGI [10] [µM] | GI50 [1] [µM] | GI50 [2] [µM] | GI50 [3] [µM] | GI50 [5] [µM] | GI50 [7] [µM] | GI50 [9] [µM] | GI50 [10] [µM] | GI50 [4] [µM] |
| --- | --- | --- | --- | --- | --- | --- | --- | --- | --- | --- | --- | --- | --- | --- | --- | --- | --- | --- |
| S=C1C(=Nc2ccccc2)N(c2ccccc2)/C(=N\c2ccccn2)N1c1ccccc1 | 27.5 | 28.8 µM | 29.1 | > 100 | 29.9 µM | > 100 | 22.7 | – | 3.59 | 27 | – | – | – | – | – | – | – | – |
| O=c1c2ccccc2n2nnc3ccc(NCCCNCCNCCCNc4ccc5nnn6c7ccccc7c(=O)c4c56)c1c32 | > 20.2 | 19 µM | 20.3 | > 50 | > 27.5 µM | > 12.4 | > 50 | > 30 | 9.84 | 15.8 | – | – | – | – | – | – | – | – |
| COc1ccc(Oc2nc3ccc(C(F)(F)F)cc3nc2-c2ccccc2)cc1 | – | > 100 µM | > 100 | > 100 | > 100 µM | > 100 | > 100 | – | > 100 | > 100 | – | – | – | – | – | – | – | – |
| C[C@@H]1C[C@]2(C[C@@H](C)[C@H]3C(C[C@@]4(C)CCC[C@@H]5C6=C[C@H](CCC34C)OC6=CC(=O)OC5(C)C)O2)OC1=O (stereo partly specified) | > 51.5 | – | > 51.5 | > 51.5 | > 51.5 µM | > 51.5 | > 51.5 | – | > 51.5 | > 51.5 | – | – | – | – | – | – | – | – |
| Cc1cc2ccccc2n1CC(=O)N1CCCC1 | > 100 | > 100 µM | > 100 | > 100 | – | > 100 | > 100 | > 100 | > 100 | > 100 | – | – | – | – | – | – | – | – |
| COc1ccccc1NC(=S)N/N=C(/C)c1ccccn1 | > 100 | 58.9 µM | > 100 | 0.0737 | > 100 µM | > 100 | – | 2.54 | > 100 | 3.22 | – | – | – | – | – | – | – | – |
| Cc1ccc(C)c(COCCOCn2cc(Br)c(N)nc2=O)c1 | > 100 | > 100 µM | > 100 | > 100 | > 100 µM | – | > 100 | > 100 | > 100 | > 100 | – | – | – | – | – | – | – | – |
| CSc1nc(NC2OCC(O)C(O)C2O)c(N)c(=O)n1C (stereo unspecified) | > 100 | – | > 100 | > 100 | > 100 µM | > 100 | > 100 | – | > 100 | > 100 | – | – | – | – | – | – | – | – |
| CC(=Nc1c2ccccc2nc2ccccc12)N(C)C | 52.4 | > 100 µM | > 100 | > 100 | > 100 µM | 38.2 | 25.2 | 25.4 | 25.5 | – | – | – | – | – | – | – | – | – |
| COc1cc(/C=C2\N=C(c3ccccc3)N(/N=C3\C(=O)Nc4ccccc43)C2=O)cc(OC)c1OC | > 100 | > 100 µM | > 100 | > 100 | > 100 µM | – | > 100 | > 100 | > 100 | > 100 | – | – | – | – | – | – | – | – |
| CCOC(=O)C(NC(=O)CC(C)C)(Nc1ccc(C(F)(F)F)cc1)C(F)(F)F (stereo unspecified) | > 100 | > 100 µM | > 100 | > 100 | > 100 µM | 93.8 | – | > 100 | > 100 | > 100 | – | – | – | – | – | – | – | – |
| Cc1cccc2nc3cccc(C(=O)NCCC[N+](C)(CCCNC(=O)c4cccc5nc6cccc(C)c6nc45)Cc4c([N+](=O)[O-])ncn4C)c3nc12 | > 1100 | > 1100 µM | > 1100 | > 1100 | > 1100 µM | 0.521 | > 1100 | – | > 1100 | 257 | 4.44 | 118 | 443 | 25 | 184 | 16.2 | 2.15 | – |
| CN(C)CCCNc1c2ccccc2nc2cccc([N+](=O)[O-])c12 | – | 0.00909 µM and 0.0869 µM | 0.448 | 0.196 | 0.0167 µM and 0.0867 µM | – | – | 0.00165 | < 0.001 | 0.00781 | < 0.001 | 0.0203 | – | < 0.001 | – | – | – | 0.029 |
| CCCn1c(=O)c2ccccc2[n+]2c(-c3ccc([N+](=O)[O-])cc3)csc12 | 83.4 | – | > 100 | 82.5 | > 100 µM | 55.7 | > 100 | > 100 | 45.5 | > 100 | – | – | – | – | – | – | – | – |
| Cn1c(-c2ccc[se]2)ccc1-c1ccc(CO)[se]1 | > 100 | – | > 100 | > 100 | > 100 µM | > 100 | 6.01 | > 100 | > 100 | 18.8 | – | – | – | – | – | – | – | – |
| COc1c(OC)c(O)c2c(=O)c(OC)c(-c3ccc4c(c3)OCO4)oc2c1O | > 100 | > 100 µM | > 100 | > 100 | > 100 µM | – | > 100 | > 100 | > 100 | > 100 | – | – | – | – | – | – | – | – |
